The nature of the data set: in vitro. The class given is in vitro ADME. Particulars: human. The protocol: The bidirectional permeability of compounds across the Caco-2 cell monolayer was assessed. The Caco-2 model is a widely used in vitro model for small intestinal absorption and potential for efflux.
Cell culture. Caco-2 cells were grown in DMEM supplemented with 10% fetal bovine serum (FBS), 1% Penicillin-Streptomycin and 1% MEM NEAA. The cells were incubated at 37° C., 5% CO2/95% air and saturated humidity. After reaching 80-90% confluency, the cells were gently detached with trypsin. Cells at passage 39 were seeded on the 24-well BD insert system at the density of 8×10^4 cells/cm^2 and cultured for 19 days with medium changed every 2-3 days. Measure the transepithelial electrical resistance (TEER) value of each well. The wells can be used only when their TEER values are greater than 600 Ohms/cm^2.
Transport assay. After removing the cell culture medium from the 24-well insert plate, the cells were rinsed with warm transport buffer. Appropriate dosing and receiving solutions were applied to the donor and receiver chambers to initiate the transport assay in apical to basolateral (A to B) or basolateral to apical (B to A) directions ([…] for apical and basolateral wells, respectively). Duplicate wells in each direction were used for the test compound and control compound. The plate was incubated in CO2 incubator at 37° C., with 5% CO2/95% air and saturated humidity without shaking. The sample after 10-minute incubation was used as the T0 sample, and the sample after 90-minute incubation was used as the T90 sample. To and T90 samples were collected from the donor and receiver side of each well at the designed timepoint, mixed with the transport buffer and acetonitrile/MeOH (1:1, v/v) and the internal standard for LC/MS/MS analysis. All samples were vortexed and centrifuged at 4000 rpm at 4° C. for 15 minutes, diluted with pure water and stored at 4° C. before bioanalysis by LC/MS/MS.
Sample analysis. The concentrations of test compounds and control compounds in Caco-2 cells were quantitatively determined by LC/MS/MS method after protein precipitation.
Calculations. The apparent permeability (Papp, cm/s), efflux ratio (ER) and recovery parameters were calculated for Caco-2 drug transport assay using the following equations:
[formula] [formula] where VR is the solution volume in the receiver chamber (0.4 mL on the apical side, 1.2 mL on the basolateral side); Area is the surface area for the insert membrane, i.e., 0.3 cm^2 for the area of the monolayer; Time is incubation time, expressed in seconds, i.e., 5400 s (90 min) for the current experiment; Co is the initial concentration of test compound or peak area ratio of control compounds in the donor chamber (μM); VD is the volume in the donor chambers (0.4 mL on the apical side, 1.2 mL on the basolateral side); CD and CR are the final concentrations of test compounds or peak area ratio of control compounds in donor and receiver chambers, respectively.
Compounds with Papp<1.0 are classified as low permeability, Papp between 1-10 are classified as medium permeability, and Papp≥10 are classified as high permeability. An efflux ratio (ER)>2 indicates the compounds are potential substrates for intestinal cell efflux transporters.

Setting [1] is: Caco-2 monolayer, apical to basolateral, 90-minute incubation, read-out: Papp, A-B.
[2] abbreviates: Caco-2 monolayer, basolateral to apical, 90-minute incubation, read-out: Papp, B-A.
[3] abbreviates: Caco-2 monolayer, ER>2 indicates potential efflux transporter substrate, read-out: ER (efflux ratio).

Structures are written as SMILES. Like-named read-outs stand apart in the source and are kept apart here.

Turning to `CC(C)(C)C(=O)OCO[C@H]1[C@@H](O)[C@](C#N)(c2ccc3c(N)ncnn23)O[C@@H]1COC(=O)Cc1ccccc1` [Compound 48, {[(2R,3S,4R,5R)-5-{4-aminopyrrolo[2,1-f][1,2,4]triazin-7-yl}-5-cyano-4-hydroxy-2-{[(2-phenylacetyl)oxy]methyl}oxolan-3-yl]oxy}methyl 2,2-dimethylpropanoate], the Papp A→B – broadly, how fast a substance crosses the layer from the apical side – at 90 min under setting [1] was 6.9 ×10⁻⁶ cm/s. Also, the Papp B→A (in general, the apparent permeability from the basolateral to the apical side of a cell layer) at 90 min under setting [2] turned out to be 1.9 ×10⁻⁶ cm/s. Moreover, the efflux ratio at 90 min under setting [3] is 0.27.

In the case of `CC(=O)OC[C@H]1O[C@@](C#N)(c2ccc3c(N)ncnn23)[C@H](O)[C@@H]1OC(=O)CC(C)C` [Compound 49, (2R,3S,4R,5R)-2-(acetoxymethyl)-5-(4-aminopyrrolo[2,1-f][1,2,4]triazin-7-yl)-5-cyano-4-hydroxytetrahydrofuran-3-yl 3-methylbutanoate], where the note is “Caco-2”, the Papp A→B at 90 min was determined as 3.9 ×10⁻⁶ cm/s, the Papp B→A at 90 min is 2.7 ×10⁻⁶ cm/s and the efflux ratio at 90 min worked out at 0.7.

As for `CC(=O)OC[C@H]1O[C@@](C#N)(c2ccc3c(N)ncnn23)[C@H](O)[C@@H]1OC(=O)CC1CCCCC1` [Compound 50, (2R,3S,4R,5R)-2-(acetoxymethyl)-5-(4-aminopyrrolo[2,1-f][1,2,4]triazin-7-yl)-5-cyano-4-hydroxytetrahydrofuran-3-yl 2-cyclohexylacetate], where the note is “Caco-2”, the apical-to-basolateral permeability (Papp A→B) at 90 min stood at 1.9 ×10⁻⁶ cm/s, the Papp B→A at 90 min stood at 0.76 ×10⁻⁶ cm/s and the efflux ratio at 90 min turned out to be 0.39.

Turning to `CC(=O)OC[C@H]1O[C@@](C#N)(c2ccc3c(N)ncnn23)[C@H](O)[C@@H]1OC(=O)Cc1ccccc1` [Compound 52, (2R,3S,4R,5R)-2-(acetoxymethyl)-5-(4-aminopyrrolo[2,1-f][1,2,4]triazin-7-yl)-5-cyano-4-hydroxytetrahydrofuran-3-yl 2-phenylacetate], the Papp A→B at 90 min under setting [1] is 1.4 ×10⁻⁶ cm/s. The Papp B→A at 90 min under setting [2] is 0.89 ×10⁻⁶ cm/s. Further, the efflux ratio at 90 min under setting [3] was found to be 0.65.

`CC(=O)OC[C@H]1O[C@@](C#N)(c2ccc3c(N)ncnn23)[C@H](O)[C@@H]1OC(=O)C(C)C` [Compound 54, (2R,3S,4R,5R)-2-(acetoxymethyl)-5-(4-aminopyrrolo[2,1-f][1,2,4]triazin-7-yl)-5-cyano-4-hydroxytetrahydrofuran-3-yl isobutyrate]: where the note is “Caco-2”, the Papp A→B at 90 min was 2.6 ×10⁻⁶ cm/s, the Papp B→A at 90 min is 2.4 ×10⁻⁶ cm/s and the efflux ratio at 90 min was 0.94.

As for `CC(=O)OC[C@H]1O[C@@](C#N)(c2ccc3c(N)ncnn23)[C@H](O)[C@@H]1OCOC(=O)C(C)(C)C` [Compound 56, {[(2R,3S,4R,5R)-2-[(acetyloxy)methyl]-5-{4-aminopyrrolo[2,1-f][1,2,4]triazin-7-yl}-5-cyano-4-hydroxyoxolan-3-yl]oxy}methyl 2,2-dimethylpropanoate], for the setting “Caco-2”, the Papp A→B at 90 min was found to be 4.7 ×10⁻⁶ cm/s, the Papp B→A at 90 min amounted to 4 ×10⁻⁶ cm/s and the efflux ratio at 90 min came out at 0.84.

For the molecule `CC(C)C(=O)OC[C@H]1O[C@@](C#N)(c2ccc3c(N)ncnn23)[C@H](O)[C@@H]1OC(=O)CC1CCCCC1` [Compound 58, ((2R,3S,4R,5R)-5-(4-aminopyrrolo[2,1-f][1,2,4]triazin-7-yl)-5-cyano-3-(2-cyclohexylacetoxy)-4-hydroxytetrahydrofuran-2-yl)methyl isobutyrate], for the setting “Caco-2”, the Papp A→B at 90 min was found to be 4.1 ×10⁻⁶ cm/s, the Papp B→A at 90 min was 2.1 ×10⁻⁶ cm/s and the efflux ratio at 90 min worked out at 0.5.

With `CC(C)C(=O)OC[C@H]1O[C@@](C#N)(c2ccc3c(N)ncnn23)[C@H](O)[C@@H]1OC(=O)Cc1ccccc1` [Compound 60, ((2R,3S,4R,5R)-5-(4-aminopyrrolo[2,1-f][1,2,4]triazin-7-yl)-5-cyano-4-hydroxy-3-(2-phenylacetoxy)tetrahydrofuran-2-yl)methyl isobutyrate], the Papp A→B at 90 min under setting [1] was 2.8 ×10⁻⁶ cm/s. The Papp B→A at 90 min under setting [2] amounted to 1.7 ×10⁻⁶ cm/s. The efflux ratio at 90 min under setting [3] worked out at 0.58.

The values above are taken from patent US12102648B2, “Orally-bioavailable nucleoside analogs” (priority 2021, dated 2024).
